# Measurements published in PubChem BioAssay (NCI).
# “And” between values parts separate entries of the source, which are not always exact repeats. Equal entries are not always repeated.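 Exposure lasted 48 hours, with cells grown in 96-well plates and compounds tested at five concentrations. GI50: concentration for 50% inhibition of growth. Definition used: TGI = concentration required for complete inhibition of growth.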
# Legend:
# Assay in all cases: NCI tumour cell line growth inhibition, 48 h
# HCC-2998 colon = tested on: HCC-2998 colon
# CAKI-1 renal = tested on: CAKI-1 renal
# SF-539 CNS = tested on: SF-539 CNS
# ACHN renal = tested on: ACHN renal
# OVCAR-3 ovarian = tested on: OVCAR-3 ovarian
# NCI-H23 lung = tested on: NCI-H23 lung
# IGROV1 ovarian = tested on: IGROV1 ovarian
# SR leukemia = tested on: SR leukemia
# NCI/ADR-RES ovarian = tested on: NCI/ADR-RES ovarian
# MDA-MB-231 breast = tested on: MDA-MB-231 breast
Compound,TGI (HCC-2998 colon) [µM],TGI (CAKI-1 renal) [µM],GI50 (SF-539 CNS),TGI (SF-539 CNS) [µM],TGI (ACHN renal) [µM],TGI (OVCAR-3 ovarian) [µM],TGI (NCI-H23 lung),TGI (IGROV1 ovarian) [µM],TGI (SR leukemia) [µM],GI50 (HCC-2998 colon) [µM],GI50 (ACHN renal) [µM],GI50 (OVCAR-3 ovarian),GI50 (NCI-H23 lung),GI50 (IGROV1 ovarian),GI50 (NCI/ADR-RES ovarian) [µM],TGI (NCI/ADR-RES ovarian) [µM],GI50 (MDA-MB-231 breast) [µM],TGI (MDA-MB-231 breast) [µM],GI50 (CAKI-1 renal) [µM],GI50 (SR leukemia) [µM]
O=c1cccccc1[O-].O=c1cccccc1[O-].O=c1cccccc1[O-].[Sm+3],> 100,> 100,29.1 µM,> 100,> 100,47,71.5 µM,> 100,–,–,–,–,–,–,–,–,–,–,–,–
COC(=O)C1CCC(=O)N1/C(C)=N/NC(=O)Nc1ccc(Cl)c(Cl)c1 (centres undefined),> 100,> 100,–,> 100,> 100,> 100,> 100 µM,> 100,> 100,–,–,–,–,–,–,–,–,–,–,–
CC(=O)[O-].[Mn+3].[O-]c1ccc(Cl)cc1C=NCCN=Cc1cc(Cl)ccc1[O-],> 100,–,36 µM,74.3,> 100,> 100,> 100 µM,54.6,–,66.3,> 100,37.6 µM,> 100 µM,7.99 µM,–,–,–,–,–,–
CCOc1ccccc1NC(=O)C1=C(C)NC(C)=C(C(=O)Nc2ccccc2OCC)C1c1ccc([N+](=O)[O-])cc1,> 100,> 100,–,> 100,> 100,> 100,> 100 µM,> 100,> 100,–,–,–,–,–,–,–,–,–,–,–
C/C(CC(=O)Nc1cccc([N+](=O)[O-])c1)=N\NC(=O)C[n+]1ccccc1,> 100,–,–,> 100,–,> 100,> 100 µM,> 100,–,–,–,–,–,–,–,–,–,–,–,–
O=C(CC1=Nc2nnc(-c3nnc4n3C(=O)C(CC(=O)C3CC3)=N4)n2C1=O)C1CC1,> 100,> 100,–,> 100,> 100,> 100,> 100 µM,> 100,–,–,–,–,–,–,–,–,–,–,–,–
COC(=O)c1sc(=NC(=S)N2CCCCC2)sc1C(=O)OC,> 100,> 100,–,> 100,> 100,34.2,–,> 100,> 100,–,–,–,–,–,–,–,–,–,–,–
c1cncc(C2ONC3=NCCN32)c1 (centres undefined),94.5,42.2,28.9 µM,> 100,38.3,27.8,> 100 µM,> 100,–,27.1,8,2.86 µM,54 µM,24 µM,22.1,80.4,32.3,> 100,8.92,–
COc1ccc2c(c1)[n+](=O)c(C(C)=O)c(C)n2[O-],> 100,> 100,–,> 100,> 100,> 100,> 100 µM,> 100,–,–,–,–,–,–,–,–,–,–,–,–
N#CCCN(CCC#N)c1ccc(C=Nc2ccc(F)cc2)cc1,> 100,> 100,–,> 83.2,> 100,> 100,> 100 µM,> 100,> 100,–,–,–,–,–,–,–,–,> 100,–,–
O=C(c1ccccc1)C(Br)C(Br)c1ccccc1 (centres undefined),26.3,3.34,10.7 µM,22.6,3.38,3.65,23.8 µM,12.2,–,13.3,1.86,1.99 µM,10.4 µM,2.94 µM,2.92,9.55,14,29,1.6,–
CC(=O)OCC1OC(n2c(=S)n(-c3ccccc3)c(=O)c3cc(Br)cc(Br)c32)C(OC(C)=O)C(OC(C)=O)C1OC(C)=O (centres undefined),> 100,> 100,43.9 µM and > 100 µM,> 100,> 100,> 100,92.1 µM and > 100 µM,> 100,> 100,–,–,47.4 µM and > 100 µM,19.1 µM and 72.3 µM,35.8 µM and > 100 µM,–,–,–,–,–,> 100
Clc1ccc2c(NCCCN3CCN(c4nc(N5CCOCC5)nc5ccccc45)CC3)ccnc2c1,3.28,–,1.68 µM,3.14,–,4.77,–,–,4.57,1.77,–,2.15 µM,–,–,2.23,4.73,–,–,–,1.35
COc1ccc(-c2cc(-c3ccco3)c(C#N)c(=O)[nH]2)cc1,> 100,–,–,53.9,> 100,53.8,> 100 µM,> 100,–,–,–,–,–,–,–,–,–,–,–,–
Nc1ccc(C(=O)/C=C/c2ccccc2O)cc1,> 100,> 100,–,> 100,> 100,> 100,> 100 µM,> 100,> 100,–,–,–,–,–,–,–,–,–,–,–
